Measured values: patent US20230174581A1, “PROCESSES AND AGENTS FOR GLAUCOMA” (AUFBAU MEDICAL INNOVATIONS LIMITED, priority 2020, published 2023)
Structures can show the parent of a compound that is named as a salt. Where a SMILES comes first, the peptide text is derived from it. Bridges are numbered along the chain shown (N, C = ends). [ ]: non-standard residue; d: D form. The star is where a group is joined. Octanoyl(6-Me) = CCC(C)CCCCC(=O)*; Dab = NCC[CH](N)C(=O)O

Key:
[1] = Relative IOP versus placebo in bovine vitreous humor (BVH) glaucoma model, microfluidic chip device
Description: Bovine vitreous after homogenization was used to model human disease because it mimicked elevated IOP in humans.
A solution of the agent compound was prepared by weighing out the compound in a microcentrifuge tube and dissolving the solid material in lx PBS buffer at pH 7.2. For a compound that was less soluble in water, a stock solution was prepared in ethanol or DMSO, and then diluted ten-fold to achieve the final concentration with a 10% ethanol or DMSO vehicle. Heat (37° C.) and vortex mixing were applied to the solution of the compound to facilitate dissolution.
To determine the effect of the compound on intraocular pressure (IOP), the compound was tested in bovine vitreous humor (BVH) glaucoma model in the microfluidic chip device.
A solution of 25% homogenized bovine vitreous humor (BVH) was prepared by diluting 100% homogenized BVH with PBS buffer. 50 uL BVH was aliquoted into 0.5 mL PCR tubes. 50 uL of the solution of the compound was added to the BVH, bringing the BVH total concentration to 12.5%. The sample was briefly vortexed and then incubated at 37° C. overnight. For a control experiment, 50 uL of either PBS buffer or PBS with 10% ethanol or DMSO were prepared and incubated with 25% BVH in the same conditions.
The test BVH solution was introduced into the reservoir of the device. A fluidic probe was attached to the inlet of the microfluidic chip and a flow rate of 2ul/min was established with PBS as the source fluid. Once fluid began exiting from the outlet of the chip and a steady flow of 2 ul/min was achieved, the flow rate and the pressure change within the microfluidic chip were recorded. Baseline flow rate and pressure readings were recorded for 5 minutes, after which 7 ul of the test BVH solution was injected into the chip through a sample injector. Recording of the flow rate and pressure change was continued for 50 additional minutes after the sample injection. Recording was stopped after 55 minutes. The relative change in chip pressure for the entire course of the experiment was plotted on a graph.

[2] = Dose-response of IOP reduction in bovine vitreous humor (BVH) glaucoma model, microfluidic chip device; conditions: 12.5% BVH, incubated at 37° C. for 1 hour; 7 ul injected; read-out: EC50 for treatment of glaucoma in a bovine vitreous model (IOP reduction)
Description: Bovine vitreous after homogenization was used to model human disease because it mimicked elevated IOP in humans. […] Once it was added to BVH, the final water concentration was 0.5%. […] Once added to BVH, the final DMSO concentration was 0.5%. […] The pellet was resuspended with PBS and concentrated by 2.5X fold. For treatment of BVH with compound, 25 ul of enriched BVH was added to 25 ul of Compound and incubated for 1 hour in a thermocycler at 37° C., then 5 ul of 5 mM CFSE was added, and the sample incubated in a thermocycler at 37° C. for 30 minutes. EC50 was estimated by plotting the logarithmic functions of the micromolar concentration of the drug in the x axis against the percent of maximal response in the y axis. The maximal response was taken as the value of the response for the highest drug concentration. The response was calculated by taking the absolute difference between the control and test value for each concentration. The compound colistin sulfate was tested in bovine vitreous humor (BVH) glaucoma model in a microfluidic chip device. A solution of 25% homogenized BVH in PBS buffer was prepared and diluted with an equal amount of a solution of the compound, so that the total BVH concentration was 12.5%. The sample was vortexed and incubated at 37° C. for 1 hour. […] The test compound-BVH solution was introduced into the reservoir of the microfluidic chip device and flow rate and pressure change were recorded. Various concentrations of the compound were tested for effects on the treatment of bovine vitreous humor. 7 ul of each test solution was injected into the microfluidic chip through a sample injector. Recording of the flow rate and pressure change was continued for 50 additional minutes after the sample injection. The relative change in chip pressure for the entire course of the experiment was obtained. […] The EC50 value was taken as the point on the x-axis at which the logarithmic function of the micromolar concentration of the compound produced half-maximal response. The logarithmic function of the micromolar concentration of the drug was plotted on the x axis against the percent of maximal response on the y axis. Maximal response was obtained by taking the value of the response for the highest drug concentration. The response was calculated by taking the absolute difference between the control and test value for each concentration.

[3] = Relative IOP in microfluidic device, human glaucoma model (POAG aqueous humor); conditions: pre-incubated at 37° C. for 24 hours, placebo buffered saline
Description: The agent was tested by controlling flow and measuring relative IOP using in a device of this invention. The agent was compared against placebo (buffered saline) by preparing each in aqueous humor from a patient with primary open angle glaucoma and pre-incubating at 37° C. for 24 hours. The timepoint of injection into the device is denoted by an arrow and the letter “a.” Referring to FIG. 25, the IOP for placebo (dashed line) increased greatly after injection of the placebo sample. The IOP rose to a maximum pressure of about 40 mm Hg. To the contrary, the IOP after injection of the agent colistin sulfate in human aqueous humor (solid line) was markedly lower than for placebo, up to about 40% lower, and the difference was sustained.
Example 1. Isolation of extracellular matrix bodies in a microfluidic device. […] The microfluidic channel flow rate was held constant at […] per minute, and the baseline system pressure was measured using an external pressure sensor. The human aqueous humor sample was injected at timepoint denoted by an arrow and the letter “a.” The pressure steadily rises to a maximum of about 41 mm Hg at 27 minutes. […] The protein content in the aqueous humor was labeled with a fluorescent marker, carboxyfluorescein succinimidyl ester (CFSE, marked with black arrows in FIG. 2). The circles are pillars in the restriction channel.
Example 2. […]

[4] = pre-incubated at 37° C. for 24 hours, placebo buffered saline, concentration not given

Row | Molecule | IOP after injection of agent, lower than for placebo [1, 4] | EC50 [2] | also measured
1 | CC(C)(C)C(=O)OCOP(=O)(COCCn1cnc2c(N)ncnc21)OCOC(=O)C(C)(C)C [adefovir dipivoxil] | up to 73% |  | 
2 | Nc1ncnc2c1ncn2CCOCP(=O)(O)O [adefovir, ((2-(6-amino-9H-purin-9-yl)ethoxy)methyl)phosphonic acid] |  | 169 nM | 
3 | CC(C)(C)NC(=O)N[C@H](C(=O)N1C[C@H]2[C@@H]([C@H]1C(=O)NC(CC1CCC1)C(=O)C(N)=O)C2(C)C)C(C)(C)C (some centres unmarked) [boceprevir] | up to 67% | 11300 nM | 
4 | CCCCCCCCCCCCCCCC[n+]1ccccc1 [cetylpyridinium chloride, 1-hexadecylpyridin-1-ium] |  |  | IOP after injection of agent, lower than for placebo ([1]; 37° C. 24 hours, cetylpyridinium chloride 43 mg/ml): ≤ 100%
5 | CC[C@@H](C(N)=O)N1CCCC1=O [levetiracetam] | up to 62% | 213 nM | 
6 | NC[C@@H]1OC(O[C@H]2[C@@H](O)[C@H](O[C@@H]3[C@@H](O)[C@H](N)C[C@H](N)[C@H]3OC3O[C@H](CN)[C@@H](O)[C@H](O)[C@H]3N)O[C@@H]2CO)[C@H](N)[C@@H](O)[C@@H]1O (some centres unmarked) [neomycin] |  |  | IOP after injection of agent, lower than for placebo ([1]; 37° C. 24 hours, neomycin sulfate 35 mg/ml): 72%
7 | COC(=O)N[C@H](C(=O)N1CCC[C@H]1C(=O)Nc1ccc([C@@H]2CC[C@@H](c3ccc(NC(=O)[C@@H]4CCCN4C(=O)[C@@H](NC(=O)OC)C(C)C)cc3)N2c2ccc(C(C)(C)C)cc2)cc1)C(C)C [ombitasvir] |  |  | IOP after injection of compound compared with placebo ([1]; 37° C. 24 hours, concentration not given): significantly higher than for placebo
8 | CCC(C)CCCCC(=O)NC(CCN)C(=O)NC(C(=O)NC(CCN)C(=O)NC1CCNC(=O)C(C(C)O)NC(=O)C(CCN)NC(=O)C(CCN)NC(=O)C(CC(C)C)NC(=O)C(Cc2ccccc2)NC(=O)C(CCN)NC1=O)C(C)O (centres unmarked) [polymyxin B sulfate] ({Octanoyl(6-Me)}-[Dab]T[Dab][Dab][Dab]FL[Dab][Dab]T; lactam 4-C; configuration not given here) |  | 4.3 nM | IOP after injection of agent, lower than for placebo ([1]; 37° C. 24 hours, Polymyxin B sulfate 10 mg/ml): 78%
9 | CC(C)N(CCNC(=O)CN1CCCC1=O)C(C)C [pramiracetam, N-[2-[di(propan-2-yl)amino]ethyl]-2-(2-oxopyrrolidin-1-yl)acetamide] | up to 44% |  | 
10 | CCCCCCCCCCCCOS(=O)(=O)[O-].[Na+] [sodium dodecyl sulfate] |  |  | IOP after injection of compound compared with placebo ([1]; 37° C. 24 hours, sodium dodecyl sulfate 24 mg/ml): significantly higher than for placebo
11 | CN(C)CCCN1c2ccccc2Sc2ccc(C(F)(F)F)cc21 [triflupromazine] | up to 40% |  | 
12 | H-TPPT-NH2 [rapastinel TFA] | up to 82% | 18 nM | 
13 | colistin sulfate | up to 97% | 0.36 nM | IOP after injection of agent, lower than for placebo [3]: up to 40%
14 | heparin sodium |  |  | IOP after injection of agent, lower than for placebo ([1]; 37° C. 24 hours, heparin sodium 10 mg/ml): 32%
